The target in test [1] is T1, PxRDL2 (Plutella xylostella, UniProt C0L7I7).
T1 sequence (C0L7I7 30-520): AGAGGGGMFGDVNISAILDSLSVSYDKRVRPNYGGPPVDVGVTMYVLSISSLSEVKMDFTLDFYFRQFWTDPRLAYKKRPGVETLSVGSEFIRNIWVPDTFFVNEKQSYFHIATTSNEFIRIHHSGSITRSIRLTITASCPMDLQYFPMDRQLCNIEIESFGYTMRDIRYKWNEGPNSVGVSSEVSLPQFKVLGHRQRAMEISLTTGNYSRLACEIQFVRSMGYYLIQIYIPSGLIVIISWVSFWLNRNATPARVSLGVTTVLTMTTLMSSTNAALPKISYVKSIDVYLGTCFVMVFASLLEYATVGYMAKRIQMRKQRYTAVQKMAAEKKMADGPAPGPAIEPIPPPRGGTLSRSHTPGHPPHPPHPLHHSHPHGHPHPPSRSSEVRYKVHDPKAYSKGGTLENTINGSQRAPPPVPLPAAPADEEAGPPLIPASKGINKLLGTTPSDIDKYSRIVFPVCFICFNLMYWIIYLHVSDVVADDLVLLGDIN
Briefly: two-electrode voltage clamp, Xenopus oocytes. In kind it is cell-based. Background: Two-electrode voltage clamp holds a large cell at a set potential and records current.

For test [2], the target named is T2, PxRDL1 (Plutella xylostella, UniProt C0L7I5).
T2 sequence (C0L7I5 26-485): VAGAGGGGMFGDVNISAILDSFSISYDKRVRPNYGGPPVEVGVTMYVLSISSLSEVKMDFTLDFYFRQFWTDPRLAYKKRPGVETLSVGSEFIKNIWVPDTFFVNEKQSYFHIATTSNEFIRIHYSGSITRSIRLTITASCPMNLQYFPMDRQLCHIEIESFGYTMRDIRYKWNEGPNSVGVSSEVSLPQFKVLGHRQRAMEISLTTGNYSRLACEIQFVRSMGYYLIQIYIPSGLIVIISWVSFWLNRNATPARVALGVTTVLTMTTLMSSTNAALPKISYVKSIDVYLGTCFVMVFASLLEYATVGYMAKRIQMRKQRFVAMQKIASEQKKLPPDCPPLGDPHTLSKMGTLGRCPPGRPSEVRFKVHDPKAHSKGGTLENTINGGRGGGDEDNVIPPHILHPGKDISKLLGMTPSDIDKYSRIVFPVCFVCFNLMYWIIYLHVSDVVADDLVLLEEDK
Briefly: cell-based. Set-up: species or system Xenopus laevis oocytes.

Test [3] has as its target T2, PxRDL1. The experiment in a line: cell-based. Set-up: species or system Xenopus laevis oocytes. This is another data set of the same source.
Test [4] concerns the target T1, PxRDL2. The experiment in a line: two-electrode voltage clamp, Xenopus oocytes. The format is cell-based. This is another data set of the same source.

Our source for the IC50 and EC50 values is doi:10.1101/2020.08.17.255026v1 (biorxiv, 2020).

As usually defined, the IC50 is the concentration that gives 50% inhibition. A high value points to weaker potency. As for `N#Cc1nn(-c2c(Cl)cc(C(F)(F)F)cc2Cl)c(N)c1[S+]([O-])C(F)(F)F` (stereo not shown) [fipronil], the IC50 in test [1] turned out to be 5.23 µM; in test [2], 130 ± 10 nM.

In general, EC50 refers to the concentration giving half of the maximal effect. For `NCCCC(=O)O` [GABA], the EC50 in test [3] came out at 20.8 ± 5.99 µM; in test [4], 153 µM.
